Two compounds from patent US20200316089A1, “1,2-DIHYDRO-3H-PYRAZOL-3-ONE COMPOUNDS AND METHODS OF USING SAME” (Frequency Therapeutics, Inc., priority 2017, published 2020) can be followed below.

Structures are written as SMILES.

The target of one experiment is recombinant human GSK3α (Homo sapiens, UniProt P49840). Put plainly: in vitro enzymatic assay (Kinase-Glo Max) for inhibition of GSK3α. The conditions noted are these: 10 uM ATP, 0.1 mg/ml GSKtide, 30° C. 40 minutes; read-out: Potency GSK-3alpha. The class given is biochemical. The procedure: (§1) Enzymatic activities of compounds of the present disclosure are tested with recombinant human GSK3 using an in vitro enzymatic assay for inhibition GSK3α and GSK3β.
(§2) The assay was performed using Kinase-Glo Max luminescence kinase assay kit (Promega). It measures kinase activity by quantitating the amount of ATP remaining in solution following a kinase reaction. The luminescent signal from the assay is correlated with the amount of ATP present and is inversely correlated with the amount of kinase activity. The compounds were diluted in 10% DMSO) and 5 μl of the dilution was added to a 50 μl reaction so that the final concentration of DMSO is 1% in all of reactions. The enzymatic reactions were conducted at 30° C. for 40 minutes. […] After the enzymatic reaction, 50 μl of Kinase-Glo Max Luminescence kinase assay solution (Promega) was added to each reaction and incubate the plate for 15 minutes at room temperature. Luminescence signal was measured using a BioTek Synergy 2 microplate reader.
(§3) Kinase activity assays were performed in duplicate at each concentration. The luminescence data were analyzed using the computer software, Graphpad Prism. The difference between luminescence intensities in the absence of Kinase (Lut) and in the presence of Kinase (Luc) was defined as 100% activity (Lut−Luc). […]
For orientation: Kinase-Glo reads ATP consumption through a luciferase reaction.

A further experiment has as its target recombinant human GSK3β (Homo sapiens, UniProt P49841). Put plainly: in vitro enzymatic assay (Kinase-Glo Max) for inhibition of GSK3β. The class given is biochemical. The conditions noted are these: 10 uM ATP. The method, then:
as §1, §2, §3

For experiment [1], the system named is Lgr5-positive cochlear cells. Put plainly: Expansion of Lgr5-positive cells (cochlear stem cell expansion, Lgr5-GFP flow cytometry). The conditions noted are these: 240 h; Lgr5-GFP mouse cochlear cells, 10 days in culture; read-out: Potency (Lgr5-positive cell expansion). Type of experiment: cell-based. The procedure:
Lgr5-EGFP-IRES-Cre-ER mice (Barker et al., 2007) (http://jaxmice.jax.org/strain/008875.html) are used to analyze the effects of small molecules on cochlear stem cell expansion.
Isolation of stem cells from the inner ear: All animal studies are conducted under an approved institutional protocol according to National Institutes of Health guidelines. For experiments with neonatal mice (postnatal days 1-3), the cochleae are dissected in HBSS and the organ of Corti are separated from the stria vascularis and the modiolus. The organs of Corti are then treated with Cell Recovery Solution (Corning) for 1 h to separate cochlear epithelium from the underlying mesenchyme. Epithelia are then collected and treated with TrypLE (Life Technologies) for 15-20 minutes at 37° C. Single cells obtained by mechanical trituration are filtered (40 μm) and suspended in Matrigel (Corning) for 3D culture. […]
Lgr5-positive cells are quantified after 10 days (D10) in culture in multiple conditions. […] The cells are then stained with propidium iodide (PI) and are analyzed using a flow cytometer for Lgr5-GFP expression. The number of GFP-positive cells and the percentage of GFP-positive cells are quantified.

recombinant human GSK3β, sequence (P49841 whole entry): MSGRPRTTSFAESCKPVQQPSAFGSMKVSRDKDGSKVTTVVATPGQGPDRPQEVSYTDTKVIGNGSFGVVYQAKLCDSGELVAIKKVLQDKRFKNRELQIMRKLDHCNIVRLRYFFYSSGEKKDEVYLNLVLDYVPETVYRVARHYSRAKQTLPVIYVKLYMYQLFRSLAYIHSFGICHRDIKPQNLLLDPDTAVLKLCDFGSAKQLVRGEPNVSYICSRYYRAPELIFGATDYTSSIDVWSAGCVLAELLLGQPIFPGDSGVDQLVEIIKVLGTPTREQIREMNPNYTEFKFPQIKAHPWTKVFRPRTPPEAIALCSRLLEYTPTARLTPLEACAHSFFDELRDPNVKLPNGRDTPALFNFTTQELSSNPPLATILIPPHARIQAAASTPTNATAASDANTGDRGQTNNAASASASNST
recombinant human GSK3α, sequence (P49840 whole entry): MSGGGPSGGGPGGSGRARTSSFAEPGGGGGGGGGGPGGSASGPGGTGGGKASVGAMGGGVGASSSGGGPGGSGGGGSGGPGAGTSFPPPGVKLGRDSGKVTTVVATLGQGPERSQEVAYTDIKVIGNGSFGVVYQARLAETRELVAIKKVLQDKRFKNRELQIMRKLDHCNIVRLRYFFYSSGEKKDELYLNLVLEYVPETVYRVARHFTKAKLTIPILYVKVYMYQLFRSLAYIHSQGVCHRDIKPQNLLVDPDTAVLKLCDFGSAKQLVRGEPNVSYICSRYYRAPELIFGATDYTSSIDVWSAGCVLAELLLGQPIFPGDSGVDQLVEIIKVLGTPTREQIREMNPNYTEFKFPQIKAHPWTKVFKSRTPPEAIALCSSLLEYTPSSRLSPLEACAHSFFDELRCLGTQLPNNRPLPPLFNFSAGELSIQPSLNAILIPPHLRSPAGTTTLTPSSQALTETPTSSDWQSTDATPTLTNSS

With `O=C(N1CCCCC1)N1CCn2cc(-c3[nH][nH]c(=O)c3-c3cnc4ccccn34)c3cc(F)cc(c32)C1` [Compound I-4], the IC50 at recombinant human GSK3α worked out at 0.348 µM; on recombinant human GSK3β (0.1 mg/ml GSKtide, 30° C. 40 minutes, read-out: Potency GSK-3beta) it was 0.706 µM. The EC50 in experiment [1] is above 10 µM.
As a reminder, the inhibition is the relative decrease from the control value, in per cent. Regarding `O=C(N1CCCCC1)N1CCn2cc(-c3c(-c4cnc5ccccn45)[nH][nH]c3=O)c3cc(F)cc(c32)C1` [Compound I-52], on recombinant human GSK3α, the IC50 stood at 10 µM. For the same compound, the inhibition at 10 µM on recombinant human GSK3β (at 10 uM compound, read-out: Potency GSK-3beta: % inhibition) was 34%. Besides, in experiment [1], the EC50 was above 10 µM.
